Measured values as given in patent US7186754B2, “Use of creatine or creatine compounds for skin preservation” (Avicena Group, Inc., priority 1999, dated 2007).

What was measured:
mice, rats and chicks = conditions: fed to mice; cited from earlier work
chicks = conditions: 1% cyclocreatine in diet, newly hatched chicks, cited from earlier work
mice = conditions: up to 1% of diet for 2 weeks or over 4 weeks; cited from earlier work
[1] = test system: striatal tissue after malonate injections; experiment: salicylate hydroxyl radical trapping and 3-nitrotyrosine in striatum after intrastriatal malonate injection; assay type: in vivo; conditions: 1% in diet for two weeks before intrastriatal malonate, FIG. 3
Source text: FIG. 3 depicts the production of 2,3 and 2,5 DHBA and 3 nitrotyrosine after intrastriatal injection of malonate in control animals fed with creatine and those fed with cyclocreatine. **p is less than 0.01 compared with uninjected side; #p is less than 0.05 compared with DHBA elevation in controls. Eight animals were used in each group.
The salicylate hydroxyl radical-trapping method was used for measuring levels of hydroxyl radicals in striatal tissue after malonate injections. Eight animals in each group were fed either a normal diet or a diet enriched with 1% creatine or 1% cyclocreatine for two weeks before intrastriatal malonate injections. Animals were injected with 200 mg/kg salicylate intraperitoneally just before the malonate injections and were killed 1 hour later. […] An aliquot of supernatant was analyzed by HPLC with the 16-electrode electrochemical detection (Beal et. al., 1990). Salicylate, 2,3 and 2,5 DHBA, tyrosine, 3-nitrotyrosine were measured electrochemically by oxidation at 840, 240, 120, 600 and 840 mV respectively with retention times of 20.5, 9.4, 6.3, 10.5, 18.2 min respectively. The data were expressed as the ratio of 2,3 and 2,5 DHBA to salicylate to normalize the DHBA concentrations for differing brain concentrations of salicylate. […] 3-Nitrotyrosine and tyrosine concentrations were measured by HPLC with electrochemical detection (Matthews 1998). […]

[2] = cited from earlier work
creatine kinase = conditions: forward reaction, in vitro and in vivo; cited from earlier work
[3] = 1% dietary cyclocreatine; cited from earlier work
[4] = test system: patients with cardiac diseases; conditions: up to 8 grams/day, intravenous injection; cited from earlier work

## NC1=NCCN1CC(=O)O [cyclocreatine, 1-carboxymethyl-2-iminoimidazolidine]
mice, rats and chicks
  tolerability: well-tolerated
chicks; in the presence of antibiotics
  mortality: without significant mortality
chicks
  growth compared with control chicks: grew more slowly
mice
  gross adverse effects: without gross adverse effects
[1]
  nitration of proteins (3-nitrotyrosine) induced by malonate: protective effects
[1]; killed 1 hour later
  levels of salicylate derivatives 2,3 DHBA and 2,5 DHBA after malonate: protect against increases
[2]; animals fed e.g. 1% dietary cyclocreatine, mM concentrations
  accumulation in different organs: accumulation of cyclocreatine in different organs in mM concentrations
[2]; rats receiving dietary 1% cyclocreatine
  uptake by muscle, heart and brain: taken up by muscle, heart and brain
Creatine kinase
  phosphorylation by creatine kinase: phosphorylated efficiently
[3]
  antiviral activity: observed

## N-phosphoryl creatine [creatine phosphate]
[4]
  adverse side effects: no adverse side effects
